Assay results taken from patent US9260504B2, “N- and C-terminal substituted antagonistic analogs of GH-RH” (University of Miami, priority 2008, dated 2016).

Assays:
Assay type in all cases: in vivo
[1] = system: PC-3 human hormone-independent prostate cancer; test: PC-3 human prostate cancer xenografts in nude mice, Experiment 1; conditions: 10 μg/day s.c., daily for 35 days; means±S.E.
Procedure: Male nude mice were implanted s.c. with 3 mm^3 pieces of PC-3 human hormone-independent prostate cancer tissue on both flanks. When tumors reached a volume of approx. 50 mm^3, the mice were divided into 4 experimental groups with 8 to 10 animals in each group and received single daily injections for 35 days as follows: 1. Control (vehicle solution); 2. JMR-132 (10 μg/day s.c.); 3. Peptide 1109 (10 μg/day s.c.); 4. Peptide 11111 (10 μg/day s.c.); Tumor volumes were measured once a week. The experiment was ended on day 35 by sacrificing the mice under Isoflurane anesthesia. Resulting tumors were cleaned, weighed, and snap-frozen until further analyses. Statistical analyses of the measurement results were done by two-tailed t-test, p<0.05 being considered significant. Data are presented as the means±S.E.

[2] = system: PC-3 human hormone-independent prostate cancer; test: PC-3 human prostate cancer xenografts in nude mice, Experiment 3; conditions: 10 μg/day s.c., 28 days
Procedure: (§1) Male nude mice were implanted s.c. with 3 mm^3 pieces of PC-3 human hormone-independent prostate cancer tissue on both flanks. When tumors reached a volume of approximately 50 mm^3, the mice were divided into 12 experimental groups with 8 to 10 animals in each group and received single daily injections for 28 days as follows: 1. Control (vehicle solution); 2. JMR-132 (10 μg/day s.c.); 3. Peptide 11113 (2 μg/day s.c.); 4. Peptide 11119 (2 μg/day s.c.); 5. Peptide 11209 (2 μg/day s.c.); 6. Peptide 11313 (2 μg/day s.c.); 7. Peptide 11408 (2 μg/day s.c.); 8. Peptide 11435 (2 μg/day s.c.); 9. Peptide 11457 (2 μg/day s.c.); 10. Peptide 11459 (2 μg/day s.c.); 11. Peptide 11469 (2 μg/day s.c.); 12. Peptide 11491 (2 μg/day s.c.).
(§2) Tumor volumes were measured once a week. The experiment was ended on day 28 by sacrificing the mice under Isoflurane anesthesia. Resulting tumors were cleaned, weighed, and snap-frozen until further analyses. Statistical analyses of the measurement results were done by two-tailed t-test, p<0.05 being considered significant.

[3] = system: PC-3 human hormone-independent prostate cancer; test: PC-3 human prostate cancer xenografts in nude mice, Experiment 4; conditions: 10 μg/day s.c.
Procedure: as §1, §2
All experimental details of Experiment 4 are the same as for Experiment 3, with the following difference. When tumors reached a volume of approximately 50 mm^3, the mice were divided into 11 experimental groups with 8 to 10 animals in each group and received single daily injections for 46 days as follows: 1. Control (vehicle solution); 2. JMR-132 (10 μg/day s.c.); 3. Peptide 11123 (2 μg/day s.c.); 4. Peptide 11125 (2 μg/day s.c.); 5. Peptide 11213 (2 μg/day s.c.); 6. Peptide 11433 (2 μg/day s.c.); 7. Peptide 11473 (2 μg/day s.c.); 8. Peptide 11485 (2 μg/day s.c.); 9. Peptide 11497 (2 μg/day s.c.); 10. Peptide 11499 (2 μg/day s.c.); 11. Peptide 11521 (2 μg/day s.c.). Tumor volumes were measured once a week. The experiment was ended on day 46 by sacrificing the mice under Isoflurane anesthesia. Resulting tumors were cleaned, weighed, and snap-frozen until further analyses. Statistical analyses of the measurement results were done by two-tailed t-test, p<0.05 being considered significant.

[4] = system: H-460 human non-small cell lung cancer; test: H-460 human non-SCLC xenografts in nude mice, Experiment 2; conditions: 10 μg/day s.c.
Procedure: Male nude mice were implanted s.c. with 3 mm^3 pieces of H-460 human non-SCLC tumor tissue on both flanks. When tumors had grown to a mean volume of approximately 90 mm^3, the mice were randomly assigned into 12 experimental groups with 8 to 10 animals in each group and received single daily injections for 28 days as follows: 1. Control (vehicle solution); 2. JMR-132 (10 μg/day s.c.); 3. Peptide 11109 (5 μg/day s.c.); 4. Peptide 11113 (5 μg/day s.c.); 5. Peptide 11119 (5 μg/day s.c.); 6. Peptide 11209 (5 μg/day s.c.); 7. Peptide 11313 (5 μg/day s.c.); 8. Peptide 11408 (5 μg/day s.c.); 9. Peptide 11435 (5 μg/day s.c.); 10. Peptide 11459 (5 μg/day s.c.); 11. Peptide 11469 (5 μg/day s.c.); 12. Peptide 11491 (5 μg/day s.c.). Tumor volumes were measured once a week. The experiment was ended on day 28 by sacrificing the mice under Isoflurane anesthesia. Resulting tumors were cleaned, weighed, and snap-frozen until further analyses. Statistical analyses of the measurement results were done by two-tailed t-test, p<0.05 being considered significant. Data are presented as the means±S.E.

[5] = system: H-460 human non-small cell lung cancer; test: H-460 human non-SCLC xenografts in nude mice, Experiment 3; conditions: 10 μg/day s.c., 28 days
Procedure: Male nude mice were implanted s.c. with 3 mm^3 pieces of H-460 human non-SCLC tumor tissue on both flanks. When tumors had grown to a mean volume of approximately 90 mm^3, the mice were randomly assigned into 8 experimental groups with 8 to 10 animals in each group and received single daily injections for 28 days as follows: 1. Control (vehicle solution); 2. JMR-132 (10 μg/day s.c.); 3. Peptide 11123 (5 μg/day s.c.); 4. Peptide 11125 (5 μg/day s.c.); 5. Peptide 11307 (5 μg/day s.c.); 6. Peptide 11317 (5 μg/day s.c.); 7. Peptide 11473 (5 μg/day s.c.); 8. Peptide 11485 (5 μg/day s.c.). Tumor volumes were measured once a week. The experiment was ended on day 28 by sacrificing the mice under Isoflurane anesthesia. Resulting tumors were cleaned, weighed, and snap-frozen until further analyses. Statistical analyses of the measurement results were done by two-tailed t-test, p<0.05 being considered significant.

[6] = system: SK-Hep-1 human hepatocellular cancer; test: SK-Hep-1 human hepatocellular cancer xenografts in nude mice; conditions: 10 μg/day s.c.
Procedure: SK-Hep-1 cancers were transplanted s.c. into both flank areas of 66 female nude mice, and allowed to grow for 47 days before starting the treatment with GH-RH antagonists. The mice were randomly assigned into 4 experimental groups with 8 animals in each group and received single daily injections for 135 days as follows: 1. Control (vehicle solution); 2. JMR-132 (10 μg/day s.c.); 3. Peptide 1109 (5 μg/day s.c.); 4. Peptide 1109 (10 μg/day s.c.). Tumor volumes were measured once a week. The experiment was ended on day 135 by sacrificing the mice under Isoflurane anesthesia. Resulting tumors were cleaned, weighed, and snap-frozen until further analyses. Statistical analyses of the measurement results were done by two-tailed t-test, p<0.05 being considered significant. Data are presented as the means±S.E.

“[PhAc^0-Tyr^1, D-Arg^2, Cpa^6, Ala^8, Har^9, Tyr(Me)^10, His^11, Abu^15, His^20, Nle^27, D-Arg^28, Har^29]hGH-RH(1-29)NH2 [JMR-132, reference compound]” was tested, and the “Tumor growth after 5 weeks (%)” value [1] was 2820 ± 498%, the “Tumor growth inhibition after 4 weeks (%)” value [2] was 28.11% and the “Tumor growth after 28 days (%)” value [3] was 1004%. For the same substance, the “Tumor growth after 46 days (%)” value [3] was 1848%, the “Inhibition (%)” value ([3]; after 28 days) was 26.62% and the “Inhibition (%)” value ([3]; after 46 days) was 44.52%. For the same substance, the “Tumor growth after 4 weeks (%)” value ([4]; 28 days, means±S.E.) was 11537 ± 8215%, the “Inhibition (%)” value ([4]; after 4 weeks, negative = stimulation) was “(−46.14) %” and the “Tumor growth inhibition after 4 weeks (%)” value [5] was 15.37%. The “Tumors with total regression” value ([6]; 135 days) was 2, the “Tumor volume (mm^3) on day 135” value ([6]; 135 days, means±S.E.) was 615 ± 372 mm^3 and the “Tumor weights (mg)” value ([6]; tumors removed at autopsy) was 1006 ± 569 (7) mg.
